This is an account of results in patent US10562887B2, “Triazolones and tetrazolones as inhibitors of ROCK” (BRISTOL-MYERS SQUIBB COMPANY, priority 2016, dated 2020).

A value given as a limit tells only on which side of the number the result lay.

The target in the experiment is ROCK2 (Homo sapiens (Human), UniProt O75116). Description: ROCK2 assay (peptide phosphorylation, LABCHIP 3000 Reader). It counts as biochemical. The following applies: 5 μM ATP, 1.5 μM peptide substrate. The method, boiled down: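 Human ROCK2 reaction in 20 mM HEPES pH 7.5, 20 mM MgCl2, 0.015% Brij-35, 4 mM DTT, with 5 μM ATP and 1.5 μM FITC-labelled peptide, DMSO <2%. Stopped with EDTA; phosphorylated and unphosphorylated peptide separated by microfluidic mobility shift. IC50 from dose-response curve fit.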
ROCK2, sequence (O75116 whole entry, species assumed): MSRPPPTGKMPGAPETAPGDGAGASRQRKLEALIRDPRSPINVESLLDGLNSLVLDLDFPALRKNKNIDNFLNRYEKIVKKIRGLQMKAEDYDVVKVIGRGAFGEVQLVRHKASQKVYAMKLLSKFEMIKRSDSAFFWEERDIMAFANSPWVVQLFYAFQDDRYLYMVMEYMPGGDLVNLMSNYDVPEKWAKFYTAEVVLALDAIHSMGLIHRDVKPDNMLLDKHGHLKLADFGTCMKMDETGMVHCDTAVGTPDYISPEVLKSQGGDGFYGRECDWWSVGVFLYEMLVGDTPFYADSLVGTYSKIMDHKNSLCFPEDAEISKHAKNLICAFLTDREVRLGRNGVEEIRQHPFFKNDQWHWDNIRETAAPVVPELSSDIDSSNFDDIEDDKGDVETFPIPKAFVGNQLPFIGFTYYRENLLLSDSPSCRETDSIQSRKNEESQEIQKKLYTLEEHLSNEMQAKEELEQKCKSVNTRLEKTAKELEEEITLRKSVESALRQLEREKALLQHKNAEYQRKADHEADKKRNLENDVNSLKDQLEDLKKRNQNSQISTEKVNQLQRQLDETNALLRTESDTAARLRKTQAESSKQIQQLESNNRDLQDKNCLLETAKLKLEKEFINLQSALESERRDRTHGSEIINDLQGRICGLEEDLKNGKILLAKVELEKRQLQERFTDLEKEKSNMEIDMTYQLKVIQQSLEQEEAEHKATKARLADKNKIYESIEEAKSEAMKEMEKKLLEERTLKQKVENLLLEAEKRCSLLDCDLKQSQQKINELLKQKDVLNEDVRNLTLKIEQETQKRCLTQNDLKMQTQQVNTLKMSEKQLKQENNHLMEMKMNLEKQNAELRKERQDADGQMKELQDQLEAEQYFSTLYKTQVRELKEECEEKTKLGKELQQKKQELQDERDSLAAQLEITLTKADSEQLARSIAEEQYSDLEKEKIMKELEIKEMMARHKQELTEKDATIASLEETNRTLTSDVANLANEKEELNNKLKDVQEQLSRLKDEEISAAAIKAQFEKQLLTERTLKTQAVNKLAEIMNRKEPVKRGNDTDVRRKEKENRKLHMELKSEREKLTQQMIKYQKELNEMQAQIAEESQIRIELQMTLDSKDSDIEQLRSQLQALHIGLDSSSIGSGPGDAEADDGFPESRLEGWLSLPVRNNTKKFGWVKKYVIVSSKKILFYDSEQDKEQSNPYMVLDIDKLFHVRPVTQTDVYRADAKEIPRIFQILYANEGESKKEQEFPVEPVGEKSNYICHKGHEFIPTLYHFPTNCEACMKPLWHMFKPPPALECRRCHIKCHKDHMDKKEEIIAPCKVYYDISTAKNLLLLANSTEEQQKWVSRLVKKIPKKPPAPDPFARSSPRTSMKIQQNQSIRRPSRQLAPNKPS
In the case of `COc1cc(F)cc(Cn2c(C)nn(-c3ccc(-c4cn[nH]c4)c(OC)c3)c2=O)c1` [Example 92, 4-(3-fluoro-5-methoxybenzyl)-1-(3-methoxy-4-(1H-pyrazol-4-yl)phenyl)-3-methyl-1H-1,2,4-triazol-5(4H)-one], the IC50 (as a rule, the point on the concentration scale where inhibition reaches its midpoint) is below 5 nM.

For `COc1cc(F)cc(Cn2c(CNCCO)nn(-c3ccc(-c4cn[nH]c4)cc3)c2=O)c1` [Example 151, 1-(4-(1H-pyrazol-4-yl)phenyl)-4-(3-fluoro-5-methoxybenzyl)-3-(((2-hydroxyethyl)amino)methyl)-1H-1,2,4-triazol-5(4H)-one], the IC50 lay in the range of 5 to 50 nM.

The molecule `COc1cc(F)cc(Cn2nnn(-c3ccc(-c4cn[nH]c4)c(OC)c3)c2=O)c1` [Example 182, 1-(3-fluoro-5-methoxybenzyl)-4-(3-methoxy-4-(1H-pyrazol-4-yl)phenyl)-1H-tetrazol-5(4H)-one] yielded a 50% inhibitory concentration (IC50) of 5 to 50 nM.

`CCc1cc(-n2nc(C)n(CCc3ccccc3)c2=O)ccc1-c1cn[nH]c1` [Example 110, 1-(3-ethyl-4-(1H-pyrazol-4-yl)phenyl)-3-methyl-4-phenethyl-1H-1,2,4-triazol-5(4H)-one] had an IC50 of 250 to 2000 nM.

In the case of `CCc1cc(-n2nc(C)n(Cc3cccc(OC)c3)c2=O)ccc1-c1cn[nH]c1` [Example 105, 1-(3-ethyl-4-(1H-pyrazol-4-yl)phenyl)-4-(3-methoxybenzyl)-3-methyl-1H-1,2,4-triazol-5(4H)-one], the IC50 fell in the range of 5 to 50 nM.

`COc1cc(-n2c(C)nn(Cc3ccccc3)c2=O)ccc1-c1cn[nH]c1` [Example 60, 1-benzyl-4-(3-methoxy-4-(1H-pyrazol-4-yl)phenyl)-3-methyl-1H-1,2,4-triazol-5(4H)-one] showed an IC50 of 250 to 2000 nM.

On to `COc1cc(-c2cn[nH]c2)ccc1-n1cnn(Cc2cc(F)ccc2F)c1=O` [Example 16, 1-(2,5-difluorobenzyl)-4-(2-methoxy-4-(1H-pyrazol-4-yl)phenyl)-1H-1,2,4-triazol-5(4H)-one], for which the IC50 fell in the range of 50 to 250 nM.

`Cc1nn(-c2ccc(-c3cn[nH]c3)cc2)c(=O)n1CCc1ccccc1` [Example 85, 1-(4-(1H-pyrazol-4-yl)phenyl)-3-methyl-4-phenethyl-1H-1,2,4-triazol-5(4H)-one]: the IC50 lay within 50 to 250 nM.

On to `Cc1nn(CCc2ccccc2)c(=O)n1-c1ccc(-c2cn[nH]c2)cc1` [Example 67, 4-(4-(1H-pyrazol-4-yl)phenyl)-3-methyl-1-phenethyl-1H-1,2,4-triazol-5(4H)-one], for which the IC50 was in the range of 250 to 2000 nM.

For the molecule `COc1cc(-n2cnn(Cc3ccccc3)c2=O)ccc1-c1cn[nH]c1` [Example 5, 1-benzyl-4-(3-methoxy-4-(1H-pyrazol-4-yl)phenyl)-1H-1,2,4-triazol-5(4H)-one], the IC50 lay in the range of 50 to 250 nM.

Turning to `CCc1cc(-n2nc(C)n(Cc3cccc(F)c3)c2=O)ccc1-c1cn[nH]c1` [Example 106, 1-(3-ethyl-4-(1H-pyrazol-4-yl)phenyl)-4-(3-fluorobenzyl)-3-methyl-1H-1,2,4-triazol-5(4H)-one], the IC50 was in the range of 5 to 50 nM.

On to `COc1cc(-n2nnn(Cc3ccccc3F)c2=O)ccc1-c1cn[nH]c1` [Example 183, 1-(2-fluorobenzyl)-4-(3-methoxy-4-(1H-pyrazol-4-yl)phenyl)-1H-tetrazol-5(4H)-one], for which the IC50 was 50 to 250 nM.

In the case of `CCc1cc(-n2ncn(Cc3cccc(OC(F)F)c3)c2=O)ccc1-c1cn[nH]c1` [Example 46, 4-(3-(difluoromethoxy)benzyl)-1-(3-ethyl-4-(1H-pyrazol-4-yl)phenyl)-1H-1,2,4-triazol-5(4H)-one], the IC50 was 50 to 250 nM.

`COc1cc(-n2nc(C)n(Cc3ccccc3)c2=O)ccc1-c1cn[nH]c1` [Example 88, 4-benzyl-1-(3-methoxy-4-(1H-pyrazol-4-yl)phenyl)-3-methyl-1H-1,2,4-triazol-5(4H)-one] registered an IC50 below 5 nM.

On to `COc1cc(-n2nc(C)n(Cc3ccc(F)cc3)c2=O)ccc1-c1cn[nH]c1` [Example 101, 4-(4-fluorobenzyl)-1-(3-methoxy-4-(1H-pyrazol-4-yl)phenyl)-3-methyl-1H-1,2,4-triazol-5(4H)-one], for which the IC50 lay in the range of 5 to 50 nM.

In turn, `O=c1n(-c2ccc(-c3cn[nH]c3)cc2)nc(CO)n1Cc1cc(F)ccc1F` [Example 129, 1-(4-(1H-pyrazol-4-yl)phenyl)-4-(2,5-difluorobenzyl)-3-(hydroxymethyl)-1H-1,2,4-triazol-5(4H)-one] displayed an IC50 of 5 to 50 nM.

Take `COc1cccc(C(C)n2cnn(-c3ccc(-c4cn[nH]c4)cc3)c2=O)c1` (single isomer, unassigned) [Example 48, 1-(4-(1H-pyrazol-4-yl)phenyl)-4-(1-(3-methoxyphenyl)ethyl)-1H-1,2,4-triazol-5(4H)-one]: the IC50 was below 5 nM.

`COc1cc(-c2cn[nH]c2)ccc1-n1cnn(CCc2ccccc2)c1=O` [Example 14, 4-(2-methoxy-4-(1H-pyrazol-4-yl)phenyl)-1-phenethyl-1H-1,2,4-triazol-5(4H)-one] returned an IC50 of 50 to 250 nM.

The molecule `COc1cccc(Cn2cnn(-c3ccc(-c4ncnc5[nH]ccc45)cc3)c2=O)c1` [Example 163, 1-(4-(7H-pyrrolo[2,3-d]pyrimidin-4-yl)phenyl)-4-(3-methoxybenzyl)-1H-1,2,4-triazol-5(4H)-one] had an IC50 of 50 to 250 nM.

Consider `O=c1n(Cc2cc(F)ccc2F)nnn1-c1ccc(-c2cn[nH]c2)cc1` [Example 174, 1-(4-(1H-pyrazol-4-yl)phenyl)-4-(2,5-difluorobenzyl)-1H-tetrazol-5(4H)-one], for which the IC50 lay in the range of 50 to 250 nM.

As to `CC(C)(O)c1nn(-c2ccc(-c3cn[nH]c3)cc2)c(=O)n1Cc1ccccc1` [Example 133, 1-(4-(1H-pyrazol-4-yl)phenyl)-4-benzyl-3-(2-hydroxypropan-2-yl)-1H-1,2,4-triazol-5(4H)-one], the IC50 is 5 to 50 nM.

Molecule `COc1cc(-n2cnn(CCc3ccccc3)c2=O)ccc1-c1cn[nH]c1` [Example 9, 4-(3-methoxy-4-(1H-pyrazol-4-yl)phenyl)-1-phenethyl-1H-1,2,4-triazol-5(4H)-one] came in with an IC50 of 50 to 250 nM.

In turn, `COc1ccc(Cn2c(C)nn(-c3ccc(-c4cn[nH]c4)cc3)c2=O)cc1F` [Example 124, 1-(4-(1H-pyrazol-4-yl)phenyl)-4-(3-fluoro-4-methoxybenzyl)-3-methyl-1H-1,2,4-triazol-5(4H)-one] displayed an IC50 of 250 to 2000 nM.

`COc1ccc(F)cc1Cn1c(CO)nn(-c2ccc(-c3cn[nH]c3)cc2)c1=O` [Example 157, 1-(4-(1H-pyrazol-4-yl)phenyl)-4-(5-fluoro-2-methoxybenzyl)-3-(hydroxymethyl)-1H-1,2,4-triazol-5(4H)-one] registered an IC50 of 50 to 250 nM.

Turning to `O=c1n(-c2ccc(-c3cn[nH]c3)cc2)nc(CO)n1Cc1cccc(F)c1` [Example 128, 1-(4-(1H-pyrazol-4-yl)phenyl)-4-(3-fluorobenzyl)-3-(hydroxymethyl)-1H-1,2,4-triazol-5(4H)-one], the IC50 was 5 to 50 nM.

Molecule `COc1cccc(Cn2c(C)nn(-c3ccc(-c4ccnc(N)n4)cc3)c2=O)c1` [Example 166, 1-(4-(2-aminopyrimidin-4-yl)phenyl)-4-(3-methoxybenzyl)-3-methyl-1H-1,2,4-triazol-5(4H)-one] gave an IC50 of 5 to 50 nM.

In turn, `O=c1n(Cc2c(F)cccc2F)cnn1-c1ccc(-c2cn[nH]c2)cc1` [Example 33, 1-(4-(1H-pyrazol-4-yl)phenyl)-4-(2,6-difluorobenzyl)-1H-1,2,4-triazol-5(4H)-one] came in with an IC50 of 5 to 50 nM.
